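Step 1: Grow cells in 96-well plates. Step 2: Expose to compound for 48 hours at 5 concentrations. Step 3: Interpolate endpoints linearly; if unreached, use highest concentration. GI50 marks 50% less growth.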 Active and inactive are the calls of the source. No stated cut-off is given here; in the data, active = GI50 up to about 1.1 µM and inactive = higher.
Key:
Experiment in all cases: NCI tumour cell line growth inhibition, 48 h
[1] = test system: 786-0
[2] = test system: COLO 205
[3] = test system: DLD-1
[4] = test system: DMS-114
[5] = test system: HCC 2998
[6] = test system: HCT-116
[7] = test system: IGROV-1
[8] = test system: M19-MEL
[9] = test system: Malme-3M
[10] = test system: OVCAR-3
[11] = test system: OVCAR-5
[12] = test system: OVCAR-8
[13] = test system: RPMI-8226
[14] = test system: SK-MEL-28
[15] = test system: SK-MEL-2
[16] = test system: SK-MEL-5
[17] = test system: SK-OV-3
[18] = test system: SN12C
[19] = test system: SNB-19
[20] = test system: SNB-78
[21] = test system: TK-10
[22] = test system: U-251
[23] = test system: UO-31
[24] = test system: A498
[25] = test system: A549
[26] = test system: ACHN
[27] = test system: CCRF-CEM
[28] = test system: HCT-15
[29] = test system: HT-29
[30] = test system: K562
[31] = test system: KM-20L2
[32] = test system: KM12
[33] = test system: LOX IMVI
[34] = test system: LXFL 529
[35] = test system: M14
[36] = test system: MOLT-4
[37] = test system: NCI-H23
[38] = test system: NCI-H460
[39] = test system: NCI-H522
[40] = test system: OVCAR-4
[41] = test system: RXF 393
[42] = test system: SF-268
[43] = test system: SF-539
[44] = test system: SNB-75
[45] = test system: SW-620
[46] = test system: UACC-62

Question: Which results are given for COc1cc(Cn2c3ccccc3c3cc(C)cc(OC)c32)cc2c1[nH]c1ccccc12?
Answer: GI50 [1]: > 25 µM (inactive); GI50 [2]: > 25 µM (inactive); GI50 [3]: > 25 µM (inactive); GI50 [4]: 20 µM (inactive); GI50 [5]: > 25 µM (inactive); GI50 [6]: > 25 µM (inactive); GI50 [7]: > 25 µM (inactive); GI50 [8]: > 25 µM (inactive); GI50 [9]: > 25 µM (inactive); GI50 [10]: 10.2 µM (inactive); GI50 [11]: > 25 µM (inactive); GI50 [12]: 10.5 µM (inactive); GI50 [13]: > 25 µM (inactive); GI50 [14]: > 25 µM (inactive); GI50 [15]: > 25 µM (inactive); GI50 [16]: > 25 µM (inactive); GI50 [17]: > 25 µM (inactive); GI50 [18]: > 25 µM (inactive); GI50 [19]: > 25 µM (inactive); GI50 [20]: 23.1 µM (inactive); GI50 [21]: > 25 µM (inactive); GI50 [22]: > 25 µM (inactive); GI50 [23]: > 25 µM (inactive)

Question: Which results are given for CN1CCN(CN2C(=O)C3C4C=CC(C3C2=O)C2C3C(=O)N(CN5CCN(C)CC5)C(=O)C3C42)CC1 (stereo not drawn)?
Answer: GI50 [1]: 18.4 µM (inactive); GI50 [24]: > 100 µM (inactive); GI50 [25]: 18.6 µM (inactive); GI50 [26]: 19.1 µM (inactive); GI50 [27]: 22 µM (inactive); GI50 [2]: 20.2 µM (inactive); GI50 [3]: 24.1 µM (inactive); GI50 [4]: 19.6 µM (inactive); GI50 [5]: 27.7 µM (inactive); GI50 [6]: 13 µM (inactive); GI50 [28]: 14.6 µM; GI50 [29]: 45.9 µM (inactive); GI50 [7]: 42.6 µM (inactive); GI50 [30]: 28.2 µM (inactive); GI50 [31]: 25.5 µM (inactive); GI50 [32]: 32.7 µM (inactive); GI50 [33]: 17.4 µM (inactive); GI50 [34]: 23.8 µM (inactive); GI50 [35]: 21.3 µM (inactive); GI50 [36]: 29.9 µM (inactive); GI50 [37]: 28.7 µM (inactive); GI50 [38]: 13.5 µM (inactive); GI50 [39]: 12.5 µM (inactive); GI50 [10]: 29.1 µM (inactive); GI50 [40]: 24.5 µM (inactive); GI50 [11]: 22.1 µM (inactive); GI50 [12]: 24.7 µM (inactive); GI50 [13]: 34.2 µM (inactive); GI50 [41]: 20.7 µM (inactive); GI50 [42]: 17.2 µM (inactive); GI50 [43]: 24.7 µM (inactive); GI50 [14]: 19.3 µM (inactive); GI50 [16]: 30.4 µM (inactive); GI50 [18]: 22.5 µM (inactive); GI50 [44]: 27.7 µM (inactive); GI50 [45]: 16.4 µM (inactive); GI50 [21]: 31.1 µM (inactive); GI50 [22]: 18.2 µM (inactive); GI50 [46]: 24.1 µM (inactive); GI50 [23]: 32.1 µM (inactive)

Source: ChEMBL document CHEMBL1201862, “PubChem BioAssay data set” (2004)
